Results: patent publication US8685969B2, “Carboline carboxamide compounds useful as kinase inhibitors” (Bristol-Myers Squibb Company, priority 2010, dated 2014)

Key:
[1] = tested on: Ramos RA1 B cells; assay: Ramos FLIPR Assay (intracellular calcium after anti-human IgM stimulation); format: cell-based; conditions: Ramos RA1 B cells stimulated with goat anti-human IgM 2.5 μg/mL; peak calcium; read-out: IC50 for Inhibition of Ramos FLIPR assay
Method: Ramos RA1 B cells (ATCC CRL-1596) at a density of 2×10^6 cells/ml in RPMI minus phenol red (Invitrogen 11835-030) and 50 mM HEPES (Invitrogen 15630-130) containing 0.1% BSA (Sigma A8577) were added to one half volume of calcium loading buffer (BD bulk kit for probenecid sensitive assays, #640177) and incubated at room temperature in the dark for 1 hour. Dye-loaded cells were pelleted (Beckmann GS-CKR, 1200 rpm, RT, 5 minutes) and resuspended in RT RPMI minus phenol red with 50 mM HEPES and 10% FBS to a density of 1×10^6 cells/ml. 150 μl aliquots (150,000/well) were plated into 96 well poly-D-lysine coated assay plates (BD 35 4640) and briefly centrifuged (Beckmann GS-CKR 800 rpm, 5 minutes, without brake). 50 μl compound dilutions in 0.4% DMSO/RPMI minus phenol red+50 mM HEPES+10% FBS were added to the wells and the plate was incubated at RT in the dark for 1 hour. Assay plate was briefly centrifuged as above prior to measuring calcium levels.
Using the FLIPR1 (Molecular devices), cells were stimulated by adding goat anti-human IgM (Invitrogen AHI0601) to 2.5 μg/mL. Changes in intracellular calcium concentrations were measured for 180 seconds and percent inhibition was determined relative to peak calcium levels seen in the presence of stimulation only.

[2] = target: T1, human recombinant Btk (Homo sapiens, UniProt Q06187); assay: Human Recombinant Btk Enzyme Assay; format: biochemical; conditions: human recombinant Btk 1 nM, ATP 20 μM, 60 min room temperature; read-out: IC50 for Inhibition of Btk
T1 construct: purchased Invitrogen Corporation
Method: Human Recombinant Btk Enzyme Assay
To V-bottom 384-well plates were added test compounds, human recombinant Btk (1 nM, Invitrogen Corporation), fluoresceinated peptide (1.5 μM), ATP (20 μM), and assay buffer (20 mM HEPES pH 7.4, 10 mM MgCl2, 0.015% Brij35 and 4 mM DTT in 1.6% DMSO), with a final volume of 30 μL. After incubating at room temperature for 60 min, the reaction was terminated by adding 45 μl of 35 mM EDTA to each sample. The reaction mixture was analyzed on the Caliper LABCHIP® 3000 (Caliper, Hopkinton, Mass.) by electrophoretic separation of the fluorescent substrate and phosphorylated product. Inhibition data were calculated by comparison to no enzyme control reactions for 100% inhibition and no inhibitor controls for 0% inhibition. Dose response curves were generated to determine the concentration required inhibiting 50% of kinase activity (IC50). Compounds were dissolved at 10 mM in dimethylsulfoxide (DMSO) and evaluated at eleven concentrations.
Using this assay, the IC50 values of the following compounds were determined.

T1 sequence (Q06187 whole entry): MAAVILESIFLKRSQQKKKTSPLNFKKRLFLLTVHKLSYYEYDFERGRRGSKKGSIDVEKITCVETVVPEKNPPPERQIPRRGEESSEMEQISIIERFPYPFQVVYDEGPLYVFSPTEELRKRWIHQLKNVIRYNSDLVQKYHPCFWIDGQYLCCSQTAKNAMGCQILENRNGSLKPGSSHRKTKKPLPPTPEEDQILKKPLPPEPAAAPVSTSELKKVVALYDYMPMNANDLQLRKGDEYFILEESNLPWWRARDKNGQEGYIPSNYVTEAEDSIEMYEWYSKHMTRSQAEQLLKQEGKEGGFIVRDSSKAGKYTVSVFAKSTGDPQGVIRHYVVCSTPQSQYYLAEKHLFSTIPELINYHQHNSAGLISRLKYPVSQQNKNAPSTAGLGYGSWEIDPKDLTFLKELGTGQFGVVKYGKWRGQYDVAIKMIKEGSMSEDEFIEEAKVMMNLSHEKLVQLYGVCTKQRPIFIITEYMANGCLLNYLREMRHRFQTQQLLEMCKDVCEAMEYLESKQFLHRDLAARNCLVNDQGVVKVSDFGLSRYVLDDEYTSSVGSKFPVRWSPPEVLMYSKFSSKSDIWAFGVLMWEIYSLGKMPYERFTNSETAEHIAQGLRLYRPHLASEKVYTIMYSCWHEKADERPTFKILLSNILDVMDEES

SMILES | IC50 [1] [nM] | IC50 [2] [nM]
NC(=O)c1ncc(-c2cccc(N3Cc4ccc(Cl)cc4C3=O)c2F)c2c1[nH]c1cc(N3CCOCC3)ccc12 [Example 77] | 81 | 
COc1ccc2c(c1)C(=O)N(c1cccc(-c3cnc(C(N)=O)c4[nH]c5cc(C(C)O)ccc5c34)c1C)C2 (stereo not drawn) [Example 31, 7-(1-Hydroxyethyl)-4-(3-(6-methoxy-1-oxoisoindolin-2-yl)-2-methylphenyl)-9H-pyrido[3,4-b]indole-1-carboxamide] | 71 | 
COc1ccc2c(c1)C(=O)N(c1cccc(-c3nnc(C(N)=O)c4[nH]c5cc(C(C)(C)O)ccc5c34)c1C)C2 [Example 36, 7-(2-Hydroxypropan-2-yl)-1-(3-(6-methoxy-1-oxoisoindolin-2-yl)-2-methylphenyl)-5H-pyridazino[4,5-b]indole-4-carboxamide] |  | 3
Cc1c(-c2ncc(C(N)=O)c3[nH]c4cc(C(C)(C)O)ccc4c23)cccc1N1Cc2ccc(F)cc2C1=O [Example 41, 1-(3-(6-Fluoro-1-oxoisoindolin-2-yl)-2-methylphentl)-7-(2-hydroxypropan-2-yl)-5H-pyrido[4,3-b]indole-4-carboxamide] | > 500 | 6
Cc1c(-c2cnc(C(N)=O)c3[nH]c4cc(N5CCOCC5)ccc4c23)cccc1N1Cc2ccc(Cl)cc2C1=O [Example 92] | 56 | 
Cc1c(-c2ccc(C(N)=O)c3[nH]c4cnc(C(C)(C)O)cc4c23)cccc1-n1cnc2cccc(F)c2c1=O [Example 110] | 96 | 14
Cc1c(-c2nnc(C(N)=O)c3[nH]c4cc(OCCO)ccc4c23)cccc1-n1cnc2ccccc2c1=O [Example 34, 7-(2-Hydroxyethoxy)-1-(2-methyl-3-(4-oxoquinazolin-3(4H)-yl)phenyl)-5H-pyridazino[4,5-b]indole-4-carboxamide] |  | 7
Cc1ccc(C(=O)Nc2cccc(-c3cnc(C(N)=O)c4[nH]c5cc(N6CCOCC6)ccc5c34)c2F)nc1 [Example 60] |  | 85
COCCOc1ccc2c(c1)[nH]c1c(C(N)=O)nc(C)c(-c3cccc(-n4cnc5ccccc5c4=O)c3C)c12 [Example 37, 7-(2-Methoxyethoxy)-3-methyl-4-(2-methyl-3-(4-oxoquinazolin-3(4H)-yl)phenyl)-9H-pyrido[3,4-b]indole-1-carboxamide] | 190 | 14
Cc1c(-c2cnc(C(N)=O)c3[nH]c4cc(OCCO)ccc4c23)cccc1-n1cnc2ccccc2c1=O [Example 11, 7-(2-Hydroxyethoxy)-4-(2-methyl-3-(4-oxoquinazolin-3(4H)-yl)phenyl)-9H-pyrido[3,4-b]indole-1-carboxamide] |  | 3
Cc1c(NC(=O)N2Cc3ccc(F)cc3C2)cccc1-c1cnc(C(N)=O)c2[nH]c3cc(N4CCOCC4)ccc3c12 [Example 71] | 71 | 3
Cc1c(-c2cnc(C(N)=O)c3[nH]c4cc(OCCO)ccc4c23)cccc1-n1cnc2ccc(F)cc2c1=O [Example 90] | 84 | 
Cc1c(-c2cnc(C(N)=O)c3[nH]c4cc(N5CCOCC5)ccc4c23)cccc1-n1cnc2c(F)cccc2c1=O [Example 97] | 15 | 
Cc1c(-c2cnc(C(N)=O)c3[nH]c4cc5c(cc4c23)OCO5)cccc1N1Cc2ccc(Cl)cc2C1=O [Example 79] | 856 | 
COCCOc1ccc2c(c1)[nH]c1c(C(N)=O)ncc(-c3cccc(N4Cc5ccc(Cl)cc5C4=O)c3C)c12 [Example 9, 4-(3-(6-Chloro-1-oxoisoindolin-2-yl)-2-methylphenyl)-7-(2-methoxyethoxy)-9H-pyrido[3,4-b]indole-1-carboxamide] |  | 2

Continued, values first:

IC50 [1] [nM] | IC50 [2] [nM] | SMILES
1420 |  | COCCOc1ccc2c(c1)[nH]c1c(C(N)=O)ncc(-c3cccc(N4Cc5ccc(F)cc5C4=O)c3F)c12 [Example 85]
 | 43 | CN(C)c1ccc(C(=O)Nc2cccc(-c3cnc(C(N)=O)c4[nH]c5cc(C(=O)N6CCOCC6)ccc5c34)c2F)cc1 [Example 55]
1380 | 57 | COc1ccc2c(c1)C(=O)N(c1cccc(-c3nnc(C(N)=O)c4[nH]c5cc(C(C)=O)ccc5c34)c1C)C2 [Example 35, 7-Acetyl-1-(3-(6-methoxy-1-oxoisoindolin-2-yl)-2-methylphenyl)-5H-pyridazino[4,5-b]indole-4-carboxamide]
1080 |  | COCCOc1ccc2c(c1)[nH]c1c(C(N)=O)ncc(-c3cccc(N4Cc5ccc(OC)cc5C4=O)c3F)c12 [Example 82]
 | 65 | NC(=O)c1ncc(-c2ccccc2F)c2c1[nH]c1ccc(F)cc12 [Example 54]
 | 32 | COc1ccc2[nH]c3c(C(N)=O)ncc(-c4ccccc4F)c3c2c1 [Example 56]
 | 8 | Cc1c(NC(=O)c2ccc(F)cc2)cccc1-c1cnc(C(N)=O)c2[nH]c3cc(N4CCOCC4)ccc3c12 [Example 64]
63 | 7 | COCCOc1ccc2c(c1)[nH]c1c(C(N)=O)ncc(-c3cccc(-n4cnc5c(F)cccc5c4=O)c3C)c12 [Example 87]
> 1000 | 521 | Cc1c(-c2ccc(C(N)=O)c3[nH]c4c(c23)CNCC4)cccc1-n1cnc2ccccc2c1=O [Example 42, 9-(2-Methyl-3-(4-oxoquinazolin-3(4H)-yl)phenyl)-2,3,4,5-tetrahydro-1H-pyrido[4,3-b]indole-6-carboxamide]
 | 8 | Cc1c(-c2nnc(C(N)=O)c3[nH]c4cc(OCCO)ccc4c23)cccc1N1Cc2ccc(Cl)cc2C1=O [Example 99]
1030 |  | NC(=O)c1ncc(-c2cccc(NC(=O)N3Cc4ccc(F)cc4C3)c2F)c2c1[nH]c1cc(N3CCOCC3)ccc12 [Example 73]
16 | 3 | Cc1c(-c2cnc(C(N)=O)c3[nH]c4cc(C(C)O)ccc4c23)cccc1-n1cnc2ccccc2c1=O (stereo not drawn) [Example 30, 7-(1-Hydroxyethyl)-4-(2-methyl-3-(4-oxoquinazolin-3(4H)-yl)phenyl)-9H-pyrido[3,4-b]indole-1-carboxamide]
294 | 23 | Cc1c(-c2ccc(C(N)=O)c3[nH]c4cc(C(=O)N(C)C)ncc4c23)cccc1-n1cnc2ccccc2c1=O [Example 117]
 | 7 | COCCOc1ccc2c(c1)[nH]c1c(C(N)=O)nnc(-c3cccc(N4Cc5ccc(Cl)cc5C4=O)c3C)c12 [Example 32, 1-(3-(6-Chloro-1-oxoisoindolin-2-yl)-2-methylphenyl)-7-(2-methoxyethoxy)-5H-pyridazino[4,5-b]indole-4-carboxamide]
19 |  | Cc1c(-c2nnc(C(N)=O)c3[nH]c4cc(C(C)(C)O)ccc4c23)cccc1N1Cc2ccc(Cl)cc2C1=O [Example 100]
